Patent publication US5252558A, “Pentapeptide having specific inhibiting effect on epidermal cell proliferation, the salts thereof, pharmaceutical compositions comprising the same and a process for the preparation of the pentapeptide and the pharmaceutical compositions” (Richter Gedeon Vegyeszeti Gyar RT, priority 1990, dated 1993)
Residues, ends and D or L forms follow the SMILES beside them. *: point of attachment. X1 = O=C1CCC[C@@H](C(=O)*)N1

System: cytoblastic medulla cells
Assay: 51Cr-emission test (in vitro toxicity)
Format: cell-based, rat
Experimental: The in vitro toxicity of the new compound was examined by ^51 Cr emission test.
6×10^7 cytoblastic medulla cells to be labelled were centrifuged (1000 rotations/minute for 7 minutes), then the cells were suspended in 1 ml of TC-199 Parker medium (product of OKI) and incubated with ^51 Cr ray source of an activity of 3.7×10^7 Bq (1 mCi) at a temperature of 37° C. for 1 hour, then the labelled cells were washed with 60 ml of medium. When the evaluation was carried out, the cell suspension was centrifuged after the treatment with the oligopeptide and the radioactivity of the supernatant was measured.
When the ^51 Cr emission test was evaluated, the cell suspension was treated with the oligopeptide and centrifuged, then the activity of the supernatant was determined by a Packard apparatus.

O=C(O)CC[C@H](NC(=O)[C@@H]1CCCC(=O)N1)C(=O)N[C@@H](CC(=O)O)C(=O)N[C@@H](CO)C(=O)NCC(=O)O [pAad-EI, Xaa Glu Asp Ser Gly] (X1-EDSG-OH)
51Cr-emission of cytoblastic medulla cells, cpm (concentration = 10^-8 mole/l, control 155,849): 148,303 cpm
toxicity by 51Cr emission (in words) (isotope emission compared to the control): not toxic
